Experiment [1] deals with T1, Gastrin/cholecystokinin type B receptor (Homo sapiens, UniProt P32239).
T1 sequence (P32239 whole entry): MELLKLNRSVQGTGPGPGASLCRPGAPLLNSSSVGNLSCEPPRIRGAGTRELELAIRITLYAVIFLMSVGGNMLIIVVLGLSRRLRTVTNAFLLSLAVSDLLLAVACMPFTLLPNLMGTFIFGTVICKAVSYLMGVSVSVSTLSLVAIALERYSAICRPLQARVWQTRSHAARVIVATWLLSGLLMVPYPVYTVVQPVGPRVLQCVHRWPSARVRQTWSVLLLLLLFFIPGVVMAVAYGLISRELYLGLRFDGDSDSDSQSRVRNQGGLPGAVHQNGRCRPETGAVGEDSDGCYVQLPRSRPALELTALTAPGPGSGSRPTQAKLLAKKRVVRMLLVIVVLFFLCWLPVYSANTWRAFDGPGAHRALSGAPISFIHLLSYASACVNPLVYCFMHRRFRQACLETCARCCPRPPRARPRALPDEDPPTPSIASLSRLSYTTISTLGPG
Description: Binding affinity against human Cholecystokinin type B receptor by displacement of [125I]CCK-8. In general terms: Loss of bound radioactivity is the signal in a displacement assay; it reports binding, not function.

Experiment [2] deals with T2, Cholecystokinin receptor type A (Homo sapiens, UniProt P32238).
T2 sequence (P32238 whole entry): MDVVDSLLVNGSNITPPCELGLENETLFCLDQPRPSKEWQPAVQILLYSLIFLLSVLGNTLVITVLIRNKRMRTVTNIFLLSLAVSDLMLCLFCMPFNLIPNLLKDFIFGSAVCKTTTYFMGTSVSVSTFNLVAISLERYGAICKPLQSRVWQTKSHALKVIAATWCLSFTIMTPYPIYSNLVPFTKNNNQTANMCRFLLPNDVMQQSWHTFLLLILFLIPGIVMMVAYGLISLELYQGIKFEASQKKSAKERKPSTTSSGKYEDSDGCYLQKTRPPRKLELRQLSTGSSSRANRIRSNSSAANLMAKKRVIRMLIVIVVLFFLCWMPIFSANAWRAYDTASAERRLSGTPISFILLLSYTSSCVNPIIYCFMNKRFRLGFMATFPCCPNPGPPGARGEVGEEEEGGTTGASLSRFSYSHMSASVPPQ
Description: Binding affinity against human Cholecystokinin type A receptor by displacement of [125I]CCK-8.

The species named for experiment [3] is Cavia porcellus. Kind of experiment: Compound was tested for agonist activity of isolated guinea pig gallbladder by using functional assay. The following applies: read-out: ED50 (the source's name).
The species named for experiment [4] is Cavia porcellus. Kind of experiment: Relative efficacy determined as maximal contraction was observed at 30 uM standardized to CCK-8. Format: functional.
Experiment [5] deals with Cholecystokinin receptor (Homo sapiens) (UniProt P32239+P32238). Description: Selectivity ratio between IC50 values of CCK-A and CCK-B. Format: protein assay.
The subject of experiment [6] is Mus musculus. Description: In vivo percent emptying of mouse gallbladder when administered intraperitoneally. Format: functional.
The test system of experiment [7] is Mus musculus. Description: Effective dose against mouse gall bladder emptying when administered intraperitoneally. Format: functional. The following applies: ip.
For experiment [8], the species on record is Cavia porcellus. Kind of experiment: Relative efficacy as determined maximal contraction was observed at 30 uM standardized to CCK-8. Format: functional.
The test system of experiment [9] is Mus musculus. Kind of experiment: In vivo percent emptying of mouse gallbladder when administered orally. Format: functional.
The subject of experiment [10] is Mus musculus. Description: Effective dose against mouse gall bladder emptying when administered orally. Format: functional. The following applies: po.
Experiment [11] deals with Mus musculus. Kind of experiment: Effective dose against mouse gallbladder emptying when administered intraperitoneally. Format: functional.
In experiment [12] the test system is Mus musculus. Kind of experiment: Effective dose against mouse gallbladder emptying when administered orally. Format: functional.

For orientation: IC50 means the midpoint of a concentration-inhibition curve. A low value points to greater potency. In the case of `CC(C)N(C(=O)CN1C(=O)C(C)(Cc2n[nH]c3ccccc23)C(=O)N(c2ccccc2)c2ccccc21)c1ccccc1` (stereo unspecified), the 50% inhibitory concentration (IC50) is 2.63 µM in [1] and 0.12 µM in experiment [2]. Further, the EC50 in the experiment filed under Cavia porcellus [3] stood at 0.02 µM. The Max in the experiment listed under Cavia porcellus [4] came to 80%. For the same compound, in experiment [5], the Selectivity ratio amounted to 20.

For the compound `CSCC[C@H](NC(=O)[C@H](Cc1ccc(OS(=O)(=O)O)cc1)NC(=O)[C@@H](N)CC(=O)O)C(=O)NCC(=O)N[C@@H](Cc1c[nH]c2ccccc12)C(=O)N[C@@H](CCSC)C(=O)N[C@@H](CC(=O)O)C(=O)N[C@@H](Cc1ccccc1)C(N)=O` [SINCALIDE], the EC50 in the experiment filed under Cavia porcellus [3] was 0.002 µM. The Empty in the experiment on Mus musculus [6] is less than 95%. This compound also displayed an ED50 in the experiment on Mus musculus [7] of 3e-05 µmol/kg. This compound also came in with a Max in the experiment filed under Cavia porcellus [8] of 100%.

With `COc1ccc(N(C(=O)CN2C(=O)C(Cc3nn(Cc4ccccc4)c4ccccc34)C(=O)N(c3ccccc3)c3ccccc32)C(C)C)cc1` (stereo unspecified), the IC50 in experiment [1] was 100 µM; in experiment [2] it was 0.309 µM. Also, in the experiment listed under Cavia porcellus [3], the EC50 is 0.34 µM. In the experiment filed under Cavia porcellus [8], this compound had a Max of 40%.

Consider `COc1ccc(N(C(=O)CN2C(=O)C(Cc3nn(C)c4ccccc34)C(=O)N(c3ccccc3)c3ccccc32)C(C)C)cc1` (stereo unspecified), for which the half-inhibitory concentration (IC50) in experiment [1] is 2.4 µM; in [2] it was 0.0427 µM. Further, the EC50 in the experiment listed under Cavia porcellus [3] came out at 0.07 µM. For the same compound, the Max in the experiment listed under Cavia porcellus [4] came to 90%. Moreover, the Selectivity ratio in [5] stood at 60.

In turn, `COc1ccc(N(C(=O)CN2C(=O)C(C)(Cc3n[nH]c4ccccc34)C(=O)N(c3ccccc3)c3ccccc32)C(C)C)cc1` (stereo unspecified) gave an IC50 in [1] of 69.2 µM. Also, in the experiment filed under Cavia porcellus [3], the EC50 was determined as 0.32 µM. This compound displayed a Max in the experiment filed under Cavia porcellus [4] of 80%. The Selectivity ratio in experiment [5] came out at 5100.

Take `CC(C)N(C(=O)CN1C(=O)C(C)(CC(=O)Nc2ccccc2)C(=O)N(c2ccccc2)c2ccccc21)c1ccccc1` (stereo unspecified): the EC50 in the experiment listed under Cavia porcellus [3] was 0.19 µM. For the same compound, the Empty in the experiment with Mus musculus [6] and with Mus musculus [9] was less than 70% throughout. Besides, the ED50 was determined as 0.03 µmol/kg in the experiment on Mus musculus [7] and 1 µmol/kg in the experiment on Mus musculus [10]. The compound also displayed a Max in the experiment filed under Cavia porcellus [8] of 80%.

For the compound `COc1ccc(N(C(=O)CN2C(=O)C(C)(Cc3c[nH]c4ccccc34)C(=O)N(c3ccccc3)c3ccccc32)C(C)C)cc1` (stereo unspecified), the half-inhibitory concentration (IC50) in experiment [1] is 17.4 µM. Moreover, in the experiment filed under Cavia porcellus [3], the EC50 came to 0.53 µM. For the same compound, the Max in the experiment listed under Cavia porcellus [4] is 60%. In addition, the Selectivity ratio in experiment [5] turned out to be 2090.

In turn, `COc1ccc(N(C(=O)CN2C(=O)C(Cc3c[nH]c4ccccc34)C(=O)N(c3ccccc3)c3ccccc32)C(C)C)cc1` (stereo unspecified) showed an IC50 in experiment [1] of 5.25 µM. The EC50 in the experiment filed under Cavia porcellus [3] worked out at 0.34 µM. In the experiment listed under Cavia porcellus [4], this compound yielded a Max of 70%. Besides, the Selectivity ratio in experiment [5] is 480.

For the compound `COc1ccc(N(C(=O)CN2C(=O)C(Cc3n[nH]c4ccccc34)C(=O)N(c3ccccc3)c3ccccc32)C(C)C)cc1` (stereo unspecified), the EC50 in the experiment filed under Cavia porcellus [3] turned out to be 0.109 µM. Also, the Max in the experiment listed under Cavia porcellus [4] is on record as 100%. The Activity with Mus musculus [6] and with Mus musculus [9] was less than 90% throughout. The ED50 in the experiment on Mus musculus [11] turned out to be 0.2 nM·kg; in the experiment with Mus musculus [12], 8 nM·kg. In experiment [5], the Selectivity ratio was found to be 50.

In turn, `CC(C)N(C(=O)CN1C(=O)C(C)(Cc2c[nH]c3ccccc23)C(=O)N(c2ccccc2)c2ccccc21)c1ccccc1` (stereo unspecified) gave an IC50 in experiment [2] of 0.107 µM. In the experiment listed under Cavia porcellus [3], the EC50 was found to be 0.47 µM. Besides, in the experiment listed under Cavia porcellus [4], the Max was found to be 80%.

Regarding `CC(C)N(C(=O)CN1C(=O)C(Cc2n[nH]c3ccccc23)C(=O)N(c2ccccc2)c2ccccc21)c1ccccc1` (stereo unspecified), the IC50 is 0.178 µM in [1] and 0.0871 µM in [2]. Further, the EC50 in the experiment filed under Cavia porcellus [3] was found to be 0.14 µM. The compound further displayed a Max in the experiment filed under Cavia porcellus [4] of 90%. Further, the Selectivity ratio in [5] came out at 2.

Source of the values: ChEMBL document CHEMBL1129362 (J Med Chem, 1996).
